Measured values reported in article PMC10046961, “High-Throughput Screening Assay for Detecting Drug-Induced Changes in Synchronized Neuronal Oscillations and Potential Seizure Risk Based on Ca^2+ Fluorescence Measurements in Human Induced Pluripotent Stem Cell (hiPSC)-Derived Neuronal 2D and 3D Cultures” (Cells, 2023).
Where two headings read alike, the source gives them in different places. Marks after values point to notes of the source that are not given here.

Assays:
[1] = tested on: hiPSC-derived neurons co-cultured with human primary astrocytes in 3D; assay: Ca2+ transient oscillation assay (FDSS), 3D spheroids; assay type: cell-based; conditions: for Area under the curve - 3D Mean / Peak Number—3D Mean / Peak amplitude - 3D Mean / Peak width - 3D Mean / Peak-to-peak interval - 3D Mean: 60 min; for effect on peak number of oscillations, in words: 3D-cultured
Outline: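 Fura-2 fluorescence was read twice for 20 min each: a baseline 10 min after 0.04% DMSO, and again 60 min after compound addition at nominal final concentration. The 3D co-cultures (1:1 hiPSC neurons from a donor and human astrocytes, 8000 each) matured 5 weeks in BrainPhys medium after a 1-week differentiation.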

[2] = tested on: hiPSC-derived neurons co-cultured with human primary astrocytes in 2D; assay: Ca2+ transient oscillation assay (FDSS), 2D co-culture; assay type: cell-based; conditions: for effect on peak number / Ca2+ neuronal oscillations, in words: 2D format; for activation at 0.11 µM / activation at 0.33 µM / activation at 1 µM / activation at 3 µM / activation at 0.37 µM / activation at 1.11 µM / activation at 3.33 µM / activation at 10 µM: Homo sapiens, 1 h; for activation at 0.11 µM / activation at 0.33 µM / activation at 1 µM / activation at 3 µM / Area under the curve - 2D Mean / Peak Number—2D Mean / Peak amplitude - 2D Mean / Peak width - 2D Mean / Peak-to-peak interval - 2D Mean / activation at 0.37 µM / activation at 1.11 µM / activation at 3.33 µM / activation at 10 µM: 60 min
Outline: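 Cultures were 10,000 CW50065 hiPSC excitatory neurons plus 2500 primary human astrocytes per well. Recordings used Cal-520 dye in HBSS/HEPES/glucose at 37 °C, with a 470/540 nm read at 2 Hz. Oscillations were stabilized with 0.04% DMSO, read for 20 min, then read again 60 min after compound addition (final DMSO 0.1%).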

[3] = ref PharmaPendium, cited from earlier work
[4] = read-out: Area under the curve - 2D Mean
[5] = read-out: Peak amplitude - 2D Mean
[6] = read-out: Peak-to-peak interval - 2D Mean
[7] = Table 1, peak plasma concentration in men, free therapeutic Cmax
[8] = Table 2, highest plasma concentration in humans after the therapeutic dose
[9] = concentration printed with the symbol

NCCCC(=O)O [GABA, gamma-aminobutyric acid]
Area under the curve - 3D Mean ([1]; 0.11 µM): 111.5 % change from baseline | Peak Number—3D Mean ([1]; 0.11 µM): 5.0 % change from baseline | Peak amplitude - 3D Mean ([1]; 0.11 µM): 87.8 % change from baseline | Peak width - 3D Mean ([1]; 0.11 µM): 7.6 % change from baseline | Peak-to-peak interval - 3D Mean ([1]; 0.11 µM): 0.2 % change from baseline | Area under the curve - 3D Mean ([1]; 0.33 µM): 116.2 % change from baseline | Peak Number—3D Mean ([1]; 0.33 µM): −1.8 % change from baseline | Peak amplitude - 3D Mean ([1]; 0.33 µM): 112.0 % change from baseline | Peak width - 3D Mean ([1]; 0.33 µM): 0.5 % change from baseline | Peak-to-peak interval - 3D Mean ([1]; 0.33 µM): −2.1 % change from baseline | Area under the curve - 3D Mean ([1]; 1 µM): 97.0 % change from baseline | Peak Number—3D Mean ([1]; 1 µM): −0.6 % change from baseline | Peak amplitude - 3D Mean ([1]; 1 µM): 90.5 % change from baseline | Peak width - 3D Mean ([1]; 1 µM): −2.7 % change from baseline | Peak-to-peak interval - 3D Mean ([1]; 1 µM): 8.3 % change from baseline | Area under the curve - 3D Mean ([1]; 3 µM): 118.7 % change from baseline | Peak Number—3D Mean ([1]; 3 µM): 2.2 % change from baseline | Peak amplitude - 3D Mean ([1]; 3 µM): 110.9 % change from baseline | Peak width - 3D Mean ([1]; 3 µM): 0.7 % change from baseline | Peak-to-peak interval - 3D Mean ([1]; 3 µM): −2.5 % change from baseline | effect on peak number / Ca2+ neuronal oscillations, in words [2]: significantly reduced peak number | activation at 0.11 µM [2, 4]: 23.1% | activation at 0.11 µM ([2]; read-out: Peak Number—2D Mean): -1.6% | activation at 0.11 µM [2, 5]: 9.1% | activation at 0.11 µM ([2]; read-out: Peak width - 2D Mean): 13.2% | activation at 0.11 µM [2, 6]: -12.3% | activation at 0.33 µM [2, 4]: 21.1% | activation at 0.33 µM ([2]; read-out: Peak Number—2D Mean): -4.4% | activation at 0.33 µM [2, 5]: 5.7% | activation at 0.33 µM ([2]; read-out: Peak width - 2D Mean): 15.4% | activation at 0.33 µM [2, 6]: 29.1% | activation at 1 µM [2, 4]: 16.4% | activation at 1 µM ([2]; read-out: Peak Number—2D Mean): -12.4% | activation at 1 µM [2, 5]: -1.4% | activation at 1 µM ([2]; read-out: Peak width - 2D Mean): 11.7% | activation at 1 µM [2, 6]: 32% | activation at 3 µM [2, 4]: 14.9% | activation at 3 µM ([2]; read-out: Peak Number—2D Mean): -36.5% | activation at 3 µM [2, 5]: -2.7% | activation at 3 µM ([2]; read-out: Peak width - 2D Mean): 8.5% | activation at 3 µM [2, 6]: -26.3% | Free Cmax [3, 7]: ~1000 nM | Free Cmax [3, 8]: ~1000 nM

N[C@@H](CCC(=O)O)C(=O)O [Glutamate]
Area under the curve - 3D Mean ([1]; 1.11 µM): 116.3 % change from baseline | Peak Number—3D Mean ([1]; 1.11 µM): −7.0 % change from baseline | Peak amplitude - 3D Mean ([1]; 1.11 µM): 85.4 % change from baseline | Peak width - 3D Mean ([1]; 1.11 µM): 12.5 % change from baseline | Peak-to-peak interval - 3D Mean ([1]; 1.11 µM): 11.6 % change from baseline | Area under the curve - 3D Mean ([1]; 3.33 µM): 129.9 % change from baseline | Peak Number—3D Mean ([1]; 3.33 µM): 12.3 % change from baseline | Peak amplitude - 3D Mean ([1]; 3.33 µM): 108.3 % change from baseline | Peak width - 3D Mean ([1]; 3.33 µM): 8.6 % change from baseline | Peak-to-peak interval - 3D Mean ([1]; 3.33 µM): 3.1 % change from baseline | Area under the curve - 3D Mean ([1]; 10 µM): 128.0 % change from baseline | Peak Number—3D Mean ([1]; 10 µM): 20.0 % change from baseline | Peak amplitude - 3D Mean ([1]; 10 µM): 103.9 % change from baseline | Peak width - 3D Mean ([1]; 10 µM): 8.1 % change from baseline | Peak-to-peak interval - 3D Mean ([1]; 10 µM): 0.4 % change from baseline | Area under the curve - 3D Mean ([1]; 30 µM): 116.3 % change from baseline | Peak Number—3D Mean ([1]; 30 µM): 8.4 % change from baseline | Peak amplitude - 3D Mean ([1]; 30 µM): 107.0 % change from baseline | Peak width - 3D Mean ([1]; 30 µM): 2.8 % change from baseline | Peak-to-peak interval - 3D Mean ([1]; 30 µM): −1.6 % change from baseline | effect on peak number of oscillations, in words [1]: did not significantly change the peak number | Ca²⁺ Transient Peak Number (3D), concentration in parentheses [1, 9]: 30 µM | Area under the curve - 2D Mean ([2]; 1.11 µM): 5.8 % change from baseline | Peak Number—2D Mean ([2]; 1.11 µM): −9.3 % change from baseline | Peak amplitude - 2D Mean ([2]; 1.11 µM): −8.5 % change from baseline | Peak width - 2D Mean ([2]; 1.11 µM): −3.4 % change from baseline | Peak-to-peak interval - 2D Mean ([2]; 1.11 µM): −2.2 % change from baseline | Area under the curve - 2D Mean ([2]; 3.33 µM): −13.0 % change from baseline | Peak Number—2D Mean ([2]; 3.33 µM): −8.9 * % change from baseline | Peak amplitude - 2D Mean ([2]; 3.33 µM): −26.9 % change from baseline | Peak width - 2D Mean ([2]; 3.33 µM): −5.2 % change from baseline | Peak-to-peak interval - 2D Mean ([2]; 3.33 µM): −17.4 % change from baseline | Area under the curve - 2D Mean ([2]; 10 µM): −72.1 % change from baseline | Peak Number—2D Mean ([2]; 10 µM): −60.3 * % change from baseline | Peak amplitude - 2D Mean ([2]; 10 µM): −60.9 % change from baseline | Peak width - 2D Mean ([2]; 10 µM): −67.3 % change from baseline | Peak-to-peak interval - 2D Mean ([2]; 10 µM): 96.3 % change from baseline | Area under the curve - 2D Mean ([2]; 30 µM): −100.0 % change from baseline | Peak Number—2D Mean ([2]; 30 µM): −100.0 * % change from baseline | Peak amplitude - 2D Mean ([2]; 30 µM): −100.0 % change from baseline | Peak width - 2D Mean ([2]; 30 µM): −100.0 % change from baseline | Peak-to-peak interval - 2D Mean ([2]; 30 µM): −100.0 % change from baseline | effect on peak number / Ca2+ neuronal oscillations, in words [2]: significantly reduced peak number | Ca²⁺ Transient Peak Number (2D), concentration in parentheses [2, 9]: 1 µM | Free Cmax [3, 7]: 1000 to 2000 nM | Free Cmax [3, 8]: 1000 to 2000 nM

CNCCCC12CCC(c3ccccc31)c1ccccc12 [Maprotiline]
Area under the curve - 3D Mean ([1]; 0.37 µM): 139.7 % change from baseline | Peak Number—3D Mean ([1]; 0.37 µM): −16.5 % change from baseline | Peak amplitude - 3D Mean ([1]; 0.37 µM): 116.3 % change from baseline | Peak width - 3D Mean ([1]; 0.37 µM): 6.2 % change from baseline | Peak-to-peak interval - 3D Mean ([1]; 0.37 µM): 6.2 % change from baseline | Area under the curve - 3D Mean ([1]; 1.11 µM): 133.4 % change from baseline | Peak Number—3D Mean ([1]; 1.11 µM): −8.2 % change from baseline | Peak amplitude - 3D Mean ([1]; 1.11 µM): 131.3 % change from baseline | Peak width - 3D Mean ([1]; 1.11 µM): −1.0 % change from baseline | Peak-to-peak interval - 3D Mean ([1]; 1.11 µM): 8.4 % change from baseline | Area under the curve - 3D Mean ([1]; 3.33 µM): 123.1 % change from baseline | Peak Number—3D Mean ([1]; 3.33 µM): −7.9 % change from baseline | Peak amplitude - 3D Mean ([1]; 3.33 µM): 130.1 % change from baseline | Peak width - 3D Mean ([1]; 3.33 µM): −3.2 % change from baseline | Peak-to-peak interval - 3D Mean ([1]; 3.33 µM): 10.6 % change from baseline | Area under the curve - 3D Mean ([1]; 10 µM): 11.9 % change from baseline | Peak Number—3D Mean ([1]; 10 µM): 1.9 % change from baseline | Peak amplitude - 3D Mean ([1]; 10 µM): 72.2 % change from baseline | Peak width - 3D Mean ([1]; 10 µM): −40.8 % change from baseline | Peak-to-peak interval - 3D Mean ([1]; 10 µM): −4.1 % change from baseline | effect on peak number of oscillations, in words [1]: did not significantly change the peak number | effect on peak number / Ca2+ neuronal oscillations, in words [2]: significantly reduced peak number | activation at 0.37 µM [2, 4]: 12.2% | activation at 0.37 µM ([2]; read-out: Peak Number—2D Mean): -0.7% | activation at 0.37 µM [2, 5]: 8.3% | activation at 0.37 µM ([2]; read-out: Peak width - 2D Mean): 4.5% | activation at 0.37 µM [2, 6]: 1.8% | activation at 1.11 µM ([2]; 1.11 µM, read-out: Area under the curve - 2D Mean): -55.2% | activation at 1.11 µM ([2]; 1.11 µM, read-out: Peak Number—2D Mean): 0.5% | activation at 1.11 µM ([2]; 1.11 µM, read-out: Peak amplitude - 2D Mean): -19.8% | activation at 1.11 µM ([2]; 1.11 µM, read-out: Peak width - 2D Mean): -57.2% | activation at 1.11 µM ([2]; 1.11 µM, read-out: Peak-to-peak interval - 2D Mean): 11.7% | activation at 3.33 µM ([2]; 3.33 µM, read-out: Area under the curve - 2D Mean): -100% | activation at 3.33 µM ([2]; 3.33 µM, read-out: Peak Number—2D Mean): -100% | activation at 3.33 µM ([2]; 3.33 µM, read-out: Peak amplitude - 2D Mean): -100% | activation at 3.33 µM ([2]; 3.33 µM, read-out: Peak width - 2D Mean): -100% | activation at 3.33 µM ([2]; 3.33 µM, read-out: Peak-to-peak interval - 2D Mean): -100% | activation at 10 µM ([2]; 10 µM, read-out: Area under the curve - 2D Mean): -100% | activation at 10 µM ([2]; 10 µM, read-out: Peak Number—2D Mean): -100% | activation at 10 µM ([2]; 10 µM, read-out: Peak amplitude - 2D Mean): -100% | activation at 10 µM ([2]; 10 µM, read-out: Peak width - 2D Mean): -100% | activation at 10 µM ([2]; 10 µM, read-out: Peak-to-peak interval - 2D Mean): -100% | Free Cmax [3, 7]: 60 nM | Free Cmax [3, 8]: 60 nM
